The assay deals with LG0703-F498-PDC complex spheroid growth. Kind of assay: Anticancer human tumor LG0703-F498-PDC patient-derived lung adenocarcinoma cell line growth inhibition [AhR]. Particulars: for viability, T/C: stronger effect = lower value. The source says: Multicellular complex tumor spheroid response to aryl hydrocarbon receptor antagonists in combination with a variety of drugs and investigational agents in selected tumor cell lines
The current study was undertaken to assess response to aryl hydrocarbon receptor antagonists in combination with standard-of-care drugs and investigational agents in solid tumor complex spheroid models. Complex spheroids include a stromal component modeled by human endothelial cells (HUVEC) and fibroblasts modeled by human mesenchymal stem cells (MSCs). The concentration ranges selected for each drug and investigational agent were based upon clinically achievable concentrations if the clinical Cmax of the agent was known.
Compounds. The drugs and investigational agents: BAY 2416964 (NSC825713), GNF351 (NSC835774), CH-223191 (NSC835775), CPI-455 (NSC825282), aza-TdCyd (NSC777586), decitabine (NSC127716), belinostat (NSC758774), entinostat (NSC756642), pevonedistat (NSC761192), tazemetostat (NSC777109), talazoparib (NSC765396), olaparib (NSC753686), selinexor (NSC780203), nedisertib (M3814, NSC802822), bortezomib (NSC756655), venetoclax (NSC766270), doxorubicin (NSC123127), elimusertib (BAY189344, NSC800525), ceralasertib (AZD6738, NSC777638), TAK-243 (NSC785004), alisertib (NSC759677), etoposide (NSC141540), topotecan (NSC609699), eribulin (NSC707389), gemcitabine (NSC613327), carboplatin (NSC241240), cisplatin (NSC119875), and SN-38 (NSC673596) were obtained from the National Cancer Institute (NCI) Developmental Therapeutics Program Chemical Repository (32). The FDA-approved anticancer drug set is available from the Developmental Therapeutics Program at https://dtp.cancer.gov/organization/dscb/obtaining/available plates.htm. […] The stock solutions were prepared in dimethyl sulfoxide (DMSO, Sigma-Aldrich, St. Louis, MO, cat. D2650), except for the platinum compounds which were prepared in saline (Quality Biological, Gaithersburg, MD, cat. 114-055-101), at 800-fold the tested concentration and stored at -70 degrees C prior to their use. All drugs and investigational agents were tested over a range starting from a high concentration at or near the clinical Cmax and decreasing in half-log increments. If the clinical Cmax for an agent had not been determined, the highest concentration tested was 10 microM (Table 1).
Cell Culture. All cells were maintained in an incubator at 37 degrees C and 5% CO2 with 95% humidity. The PDC lines were cultured according to standard operating procedures established by the NCI PDMR (https://pdmr.cancer.gov). Briefly, all PDCs were thawed and cultured in Matrigel-coated flasks prepared with a working solution of 1X Ham's F-12 nutrient mix, without supplementation (Invitrogen, Waltham, MA, cat. 11765054), 100 U/mL penicillin-streptomycin (Invitrogen, cat. 15140122), and 2.5% Matrigel (Corning Inc., Corning, NY, cat. 354248) for the first three passages. All PDCs were cultured in complete DMEM/F-12 media containing advanced DMEM/F-12 (Invitrogen, cat. 12634028), 4.9% defined fetal bovine serum, heat inactivated (HyClone Laboratories Inc., Logan, UT, cat. SH30070.03HI), 389 ng/mL hydrocortisone (Sigma-Aldrich, cat. H4001), 9.7 ng/mL human EGF recombinant protein (Invitrogen, cat. PHG0313), 23.4 microg/mL adenine (Sigma-Aldrich, cat. A2786), 97.3 U/mL penicillin-streptomycin (Invitrogen, cat. 15140122), 1.9 mM L-glutamine (Invitrogen, cat. 25030081), and 9.7 microM Y-27632 dihydrochloride (Tocris Bioscience, Bristol, United Kingdom, cat. 1254). The PDCs were cultured in complete DMEM/F12 media without 10 microM Y-27632 dihydrochloride for at least two passages prior to the screen. The established cell lines NCI-H1341 and […] were cultured in DMEM/F-12, HEPES (Invitrogen, cat. 11330032), 5% defined fetal bovine serum (HyClone Laboratories Inc., cat. SH30070.03), ITS premix universal culture supplement [insulin (5 microg/mL), transferrin (5 microg/mL), and selenious acid (5 ng/mL)] […]

[1] abbreviates: curve of first compound, second compound 0.1 µM.
The mark [2] stands for this setting: curve of first compound, second compound 0.316 µM.
The mark [3] stands for this setting: curve of first compound, second compound 1 µM.
[4] abbreviates: curve of first compound, second compound 3.16 µM.
[5] abbreviates: curve of first compound, second compound 10 µM.

This passage reports IC50 and viability, T/C results from PubChem BioAssay AID1919013 (Molecular Pharmacology Branch, DTP, NCI, 2023).

Several values for one entry are separate records, joined by “and”; a condition that tells them apart may be missing. Equal entries are not always repeated. Where only a bound is given, the exact number is not on record here.
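Also: luminescence taken as a proxy for viable cell amount.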
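For viability, T/C in this document: percent of DMSO vehicle control where 100% means growth equal to vehicle.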

As usually defined, the IC50 is the concentration at which inhibition is half-maximal. In general, viability, T/C refers to the ratio of treated to control. For the molecule `O=C(C=Cc1cccc(S(=O)(=O)Nc2ccccc2)c1)NO` + Cc1ccccc1N=Nc1ccc(NC(=O)c2ccnn2C)c(C)c1, the IC50 is, setting by setting: under setting [1], 828 nM; under setting [2], 809 nM; under setting [3], 921 nM; under setting [4], 901 nM; under setting [5], 1280 nM. The viability, T/C (second compound 0.1 µM, first compound 0.0316 µM) was 106%; the viability, T/C (second compound 0.1 µM, first compound 0.1 µM) was 123%; the viability, T/C (second compound 0.1 µM, first compound 0.316 µM) was 84%; the viability, T/C (second compound 0.1 µM, first compound 1 µM) was 43.9%; the viability, T/C (second compound 0.1 µM, first compound 3.16 µM) is 12.4%; the viability, T/C (second compound 0.1 µM, first compound 10 µM) was 2.33%. In addition, the viability, T/C (second compound 0.316 µM, first compound 0.0316 µM) was 110%; the viability, T/C (second compound 0.316 µM, first compound 0.1 µM) was 99.7%; the viability, T/C (second compound 0.316 µM, first compound 0.316 µM) was 81.6%; the viability, T/C (second compound 0.316 µM, first compound 1 µM) is 42.9%; the viability, T/C (second compound 0.316 µM, first compound 3.16 µM) was 13.5%; the viability, T/C (second compound 0.316 µM, first compound 10 µM) is 2.43%. In addition, the viability, T/C is 122% (second compound 1 µM, first compound 0.0316 µM); 111% (second compound 1 µM, first compound 0.1 µM); 83.9% (second compound 1 µM, first compound 0.316 µM); 50.4% (second compound 1 µM, first compound 1 µM); 12.6% (second compound 1 µM, first compound 3.16 µM); 2.97% (second compound 1 µM, first compound 10 µM). Also, the viability, T/C (second compound 3.16 µM, first compound 0.0316 µM) was 97.2%; the viability, T/C (second compound 3.16 µM, first compound 0.1 µM) is 113%; the viability, T/C (second compound 3.16 µM, first compound 0.316 µM) was 86.5%; the viability, T/C (second compound 3.16 µM, first compound 1 µM) is 44.8%; the viability, T/C (second compound 3.16 µM, first compound 3.16 µM) is 17.8%; the viability, T/C (second compound 3.16 µM, first compound 10 µM) was 2.8%. Further, the viability, T/C is 103% (second compound 10 µM, first compound 0.0316 µM); 101% (second compound 10 µM, first compound 0.1 µM); 74.7% (second compound 10 µM, first compound 0.316 µM); 60.3% (second compound 10 µM, first compound 1 µM); 25.9% (second compound 10 µM, first compound 3.16 µM); 6.34% (second compound 10 µM, first compound 10 µM).

With `CC(C)c1c(-c2ccccc2)nc2c(C#N)c[nH]n2c1=O`, the viability, T/C is, setting by setting: (compound 0.0316 µM) 101% and 99.1% and 108%; (compound 0.1 µM) 96.1% and 98.3% and 103%; (compound 0.316 µM) 105% and 107% and 103%; (compound 1 µM) 87% and 102% and 104%; (compound 3.16 µM) 88.2% and 91.2% and 91.7%; (compound 10 µM) 99.6% and 90.7% and 93.6%. Moreover, the IC50 (curve of compound) was over 10000 nM.

In the case of `O=C(C=Cn1cnc(-c2cc(C(F)(F)F)cc(C(F)(F)F)c2)n1)NNc1cnccn1` + Cc1cncc(-c2nc(NCCc3c[nH]c4ccccc34)c3ncn(C(C)C)c3n2)c1, the 50% inhibitory concentration (IC50) was 116 nM under setting [1]; 115 nM under setting [2]; 99.1 nM under setting [3]; 24.9 nM under setting [4]; under 9.49 nM under setting [5]. Moreover, the viability, T/C (second compound 0.1 µM, first compound 0.00949 µM) was 87.9%; the viability, T/C (second compound 0.1 µM, first compound 0.03 µM) was 70.4%; the viability, T/C (second compound 0.1 µM, first compound 0.0949 µM) is 49.8%; the viability, T/C (second compound 0.1 µM, first compound 0.3 µM) was 40%; the viability, T/C (second compound 0.1 µM, first compound 0.949 µM) is 37.4%; the viability, T/C (second compound 0.1 µM, first compound 3 µM) is 27.9%. In addition, the viability, T/C (second compound 0.316 µM, first compound 0.00949 µM) was 82.4%; the viability, T/C (second compound 0.316 µM, first compound 0.03 µM) is 69.7%; the viability, T/C (second compound 0.316 µM, first compound 0.0949 µM) was 51.8%; the viability, T/C (second compound 0.316 µM, first compound 0.3 µM) was 36.2%; the viability, T/C (second compound 0.316 µM, first compound 0.949 µM) was 37.4%; the viability, T/C (second compound 0.316 µM, first compound 3 µM) was 25%. Also, the viability, T/C was 82.6% (second compound 1 µM, first compound 0.00949 µM); 70.9% (second compound 1 µM, first compound 0.03 µM); 48.8% (second compound 1 µM, first compound 0.0949 µM); 38.2% (second compound 1 µM, first compound 0.3 µM); 29.2% (second compound 1 µM, first compound 0.949 µM); 27.9% (second compound 1 µM, first compound 3 µM). The viability, T/C (second compound 3.16 µM, first compound 0.00949 µM) is 62.3%; the viability, T/C (second compound 3.16 µM, first compound 0.03 µM) is 47.4%; the viability, T/C (second compound 3.16 µM, first compound 0.0949 µM) was 34.3%; the viability, T/C (second compound 3.16 µM, first compound 0.3 µM) was 26%; the viability, T/C (second compound 3.16 µM, first compound 0.949 µM) was 26.3%; the viability, T/C (second compound 3.16 µM, first compound 3 µM) is 24.9%. Besides, the viability, T/C (second compound 10 µM, first compound 0.00949 µM) was 1.57%; the viability, T/C (second compound 10 µM, first compound 0.03 µM) was 1.26%; the viability, T/C (second compound 10 µM, first compound 0.0949 µM) was 1.76%; the viability, T/C (second compound 10 µM, first compound 0.3 µM) is 2.84%; the viability, T/C (second compound 10 µM, first compound 0.949 µM) is 2.94%; the viability, T/C (second compound 10 µM, first compound 3 µM) is 4.72%.

On to `COc1cccc2c1C(=O)c1c(O)c3c(c(O)c1C2=O)CC(O)(C(=O)CO)CC3OC1CC(N)C(O)C(C)O1` (centres undefined), for which the viability, T/C reads like this: (compound 0.0316 µM) 88% and 108% (2×); (compound 0.1 µM) 82.8% and 79.7% and 87.9%; (compound 0.316 µM) 65.5% and 75.9% and 69.5%; (compound 1 µM) 40.7% and 49.1% and 47.5%; (compound 3.16 µM) 9.35% and 15.7% and 20.4%; (compound 10 µM) 0.71% and 0.83% and 1.09%. Moreover, the IC50 (curve of compound) is 628 nM and 828 nM and 812 nM.
